Experimental data: patent US20230278972A1, “SUBSTITUTED HALOALKYL SULFONANILIDE HERBICIDES” (FMC Corporation, priority 2020, published 2023)

Tests used:
Type in all cases: in vivo
[1] = system: barnyardgrass (Echinochloa crus-galli); assay: Test A preemergence, barnyardgrass; settings: Preemergence; for Barnyardgrass plant response rating: 125 g ai/ha, visual injury on 0 to 100 scale (0 no effect, 100 complete control), approximately 10 days; for Plant response rating, Barnyardgrass: 500 g ai/ha, 0 to 100 scale (0 no effect, 100 complete control)
Procedure, shortened: (§1)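 Formulated with a surfactant in a non-phytotoxic solvent, compounds are applied to loam–sand pots, either to bare soil immediately after seeding (preemergence) or to seedlings of 2 to 10 cm bearing one to two leaves (postemergence).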

kochia (Bassia scoparia) [2] = assay: Test A preemergence, kochia; settings: Preemergence; for Kochia plant response rating: 125 g ai/ha, visual injury on 0 to 100 scale (0 no effect, 100 complete control), approximately 10 days; for Plant response rating, Kochia: 500 g ai/ha, 0 to 100 scale (0 no effect, 100 complete control)
Procedure, shortened: as §1

[3] = system: ragweed (common ragweed, Ambrosia artemisiifolia); assay: Test A preemergence, ragweed; settings: Preemergence; for Ragweed plant response rating: 125 g ai/ha, visual injury on 0 to 100 scale (0 no effect, 100 complete control), approximately 10 days; for Plant response rating, Ragweed: 500 g ai/ha, 0 to 100 scale (0 no effect, 100 complete control)
Procedure, shortened: as §1

[4] = system: Ryegrass, Italian (Italian ryegrass, Lolium multiflorum); assay: Test A preemergence, Ryegrass, Italian; settings: Preemergence; for Ryegrass, Italian plant response rating: 125 g ai/ha, visual injury on 0 to 100 scale (0 no effect, 100 complete control), approximately 10 days; for Plant response rating, Ryegrass, Italian: 500 g ai/ha, 0 to 100 scale (0 no effect, 100 complete control)
Procedure, shortened: as §1

[5] = system: Foxtail, Giant (giant foxtail, Setaria faberi); assay: Test A preemergence, Foxtail, Giant; settings: Preemergence; for Foxtail, Giant plant response rating: 125 g ai/ha, visual injury on 0 to 100 scale (0 no effect, 100 complete control), approximately 10 days; for Plant response rating, Foxtail, Giant: 500 g ai/ha, 0 to 100 scale (0 no effect, 100 complete control)
Procedure, shortened: as §1

[6] = system: pigweed (Amaranthus retroflexus); assay: Test A preemergence, pigweed; settings: for Pigweed plant response rating: 125 g ai/ha, visual injury on 0 to 100 scale (0 no effect, 100 complete control), approximately 10 days; for Plant response rating, Pigweed: 500 g ai/ha, 0 to 100 scale (0 no effect, 100 complete control)
Procedure, shortened: (§2)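 Greenhouse pot test in a loam–sand blend; compounds delivered in a non-phytotoxic solvent carrying a surfactant, applied either as a directed spray to soil at seeding or over seedlings 2 to 10 cm high with one to two leaves.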

[7] = system: barnyardgrass (Echinochloa crus-galli); assay: Test A postemergence, barnyardgrass; settings: Postemergence, 0 to 100 scale (0 no effect, 100 complete control); for Barnyardgrass plant response rating: visual injury vs untreated controls after approx. 10 days
Procedure, shortened: as §2

kochia (Bassia scoparia) [8] = assay: Test A postemergence, kochia; settings: Postemergence, 0 to 100 scale (0 no effect, 100 complete control); for Kochia plant response rating: visual injury vs untreated controls after approx. 10 days
Procedure, shortened: as §1

[9] = system: ragweed (common ragweed, Ambrosia artemisiifolia); assay: Test A postemergence, ragweed; settings: Postemergence, 0 to 100 scale (0 no effect, 100 complete control); for Ragweed plant response rating: visual injury vs untreated controls after approx. 10 days
Procedure, shortened: as §1

[10] = system: Ryegrass, Italian (Italian ryegrass, Lolium multiflorum); assay: Test A postemergence, Ryegrass, Italian; settings: Postemergence, 0 to 100 scale (0 no effect, 100 complete control); for Ryegrass, Italian plant response rating: visual injury vs untreated controls after approx. 10 days
Procedure, shortened: as §1

[11] = system: Foxtail, Giant (giant foxtail, Setaria faberi); assay: Test A postemergence, Foxtail, Giant; settings: Postemergence, 0 to 100 scale (0 no effect, 100 complete control); for Foxtail, Giant plant response rating: visual injury vs untreated controls after approx. 10 days
Procedure, shortened: as §1

[12] = system: pigweed (Amaranthus retroflexus); assay: Test A postemergence, pigweed; settings: Postemergence, 0 to 100 scale (0 no effect, 100 complete control); for Pigweed plant response rating: visual injury vs untreated controls after approx. 10 days
Procedure, shortened: as §1

[13] = system: wheat (Triticum aestivum); assay: Test A postemergence, wheat; settings: Postemergence, 0 to 100 scale (0 no effect, 100 complete control); for Wheat plant response rating: visual injury vs untreated controls after approx. 10 days
Procedure, shortened: as §2

corn (Zea mays) = assay: Test A postemergence, corn; settings: Postemergence, 0 to 100 scale (0 no effect, 100 complete control); for Corn plant response rating: visual injury vs untreated controls after approx. 10 days
Procedure, shortened: as §1

[14] = system: blackgrass (Alopecurus myosuroides); assay: Test A postemergence, blackgrass; settings: Postemergence, 0 to 100 scale (0 no effect, 100 complete control); for Blackgrass plant response rating: visual injury vs untreated controls after approx. 10 days
Procedure, shortened: as §1

[15] = system: galium (catchweed bedstraw, Galium aparine); assay: Test A postemergence, galium; settings: Postemergence, 0 to 100 scale (0 no effect, 100 complete control); for Galium plant response rating: visual injury vs untreated controls after approx. 10 days
Procedure, shortened: as §2

[16] = 125 g ai/ha, visual injury approx. 10 days
[17] = 500 g ai/ha, visual injury, approx. 10 days

Row | SMILES | Barnyardgrass plant response rating [1] | Plant response rating, Barnyardgrass [1] | Kochia plant response rating (kochia (Bassia scoparia) [2]) | Plant response rating, Kochia (kochia (Bassia scoparia) [2]) | Ragweed plant response rating [3] | Plant response rating, Ragweed [3] | Ryegrass, Italian plant response rating [4] | Plant response rating, Ryegrass, Italian [4] | Foxtail, Giant plant response rating [5] | Plant response rating, Foxtail, Giant [5] | Pigweed plant response rating [6] | Plant response rating, Pigweed [6] | Plant response rating, Barnyardgrass [7, 16] | Plant response rating, Kochia (kochia (Bassia scoparia) [8]; [16]) | Plant response rating, Ragweed [9, 16] | Plant response rating, Ryegrass, Italian [10, 16] | Plant response rating, Foxtail, Giant [11, 16] | Plant response rating, Pigweed [12, 16] | Plant response rating, Wheat [13, 16] | Plant response rating, Corn (corn (Zea mays); [16]) | other results
1 | Cc1cc(Cl)c(NS(=O)(=O)C(F)(F)F)cc1C(=O)N1CCSCC1 [Compound 26] | 70 | 100 | 0 | 50 | 20 | 50 | 80 | 100 | 100 | 100 | 80 | 90 | 20 | 0 | 50 | 0 | 10 | 50 | 40 | 0 | Plant response rating, Barnyardgrass [7, 17]: 70; Plant response rating, Kochia (kochia (Bassia scoparia) [8]; [17]): 10; Plant response rating, Ragweed [9, 17]: 100; Plant response rating, Ryegrass, Italian [10, 17]: 0; Plant response rating, Foxtail, Giant [11, 17]: 40; Plant response rating, Pigweed [12, 17]: 90; Plant response rating, Wheat [13, 17]: 60; Plant response rating, Corn (corn (Zea mays); [17]): 20; Plant response rating, Blackgrass [14, 16]: 0; Plant response rating, Blackgrass [14, 17]: 30; Plant response rating, Galium [15, 16]: 70; Plant response rating, Galium [15, 17]: 90
2 | Cc1cc(C)c(C(=O)N2CCCOCC2)cc1NS(=O)(=O)C(F)(F)F [Compound 160] | 80 | 100 | 20 | 90 | 10 | 90 | 50 | 60 | 90 | 100 | 90 | 100 | – | – | – | – | – | – | – | – | Plant response rating, Barnyardgrass ([7]; 125 g ai/ha): 30; Barnyardgrass plant response rating ([7]; 500 g ai/ha): 80; Plant response rating, Kochia (kochia (Bassia scoparia) [8]; 125 g ai/ha): 10; Kochia plant response rating (kochia (Bassia scoparia) [8]; 500 g ai/ha): 30; Plant response rating, Ragweed ([9]; 125 g ai/ha): 70; Ragweed plant response rating ([9]; 500 g ai/ha): 80; Plant response rating, Ryegrass, Italian ([10]; 125 g ai/ha): 0; Ryegrass, Italian plant response rating ([10]; 500 g ai/ha): 0; Plant response rating, Foxtail, Giant ([11]; 125 g ai/ha): 0; Foxtail, Giant plant response rating ([11]; 500 g ai/ha): 60; Plant response rating, Pigweed ([12]; 125 g ai/ha): 70; Pigweed plant response rating ([12]; 500 g ai/ha): 90; Plant response rating, Wheat ([13]; 125 g ai/ha): 0; Wheat plant response rating ([13]; 500 g ai/ha): 20; Plant response rating, Corn (corn (Zea mays); 125 g ai/ha): 0; Corn plant response rating (corn (Zea mays); 500 g ai/ha): 10; Plant response rating, Blackgrass ([14]; 125 g ai/ha): 0; Blackgrass plant response rating ([14]; 500 g ai/ha): 10; Plant response rating, Galium ([15]; 125 g ai/ha): 80; Galium plant response rating ([15]; 500 g ai/ha): 90
3 | Cc1c(NS(=O)(=O)C(F)(F)F)cc(C(=O)N2CCC(F)CC2)c(C)c1F [Compound 109] | 90 | 100 | 90 | 100 | 90 | 90 | 70 | 80 | 100 | 100 | 100 | 100 | 0 | 10 | 70 | 40 | 0 | 50 | 30 | 0 | Barnyardgrass plant response rating ([7]; 500 g ai/ha): 70; Kochia plant response rating (kochia (Bassia scoparia) [8]; 500 g ai/ha): 40; Ragweed plant response rating ([9]; 500 g ai/ha): 80; Ryegrass, Italian plant response rating ([10]; 500 g ai/ha): 60; Foxtail, Giant plant response rating ([11]; 500 g ai/ha): 40; Pigweed plant response rating ([12]; 500 g ai/ha): 80; Wheat plant response rating ([13]; 500 g ai/ha): 70; Corn plant response rating (corn (Zea mays); 500 g ai/ha): 40; Plant response rating, Blackgrass [14, 16]: 10; Blackgrass plant response rating ([14]; 500 g ai/ha): 10; Plant response rating, Galium [15, 16]: 80; Galium plant response rating ([15]; 500 g ai/ha): 90
